Results published in patent US12378224B2 (Dong-A Socio Holdings Co., Ltd., priority 2016, dated 2025).

How the values were obtained:
human MER (528-end) = human MER (528-end) (Homo sapiens (Human), UniProt Q12866); test: HTRF Kinase Activity Biochemical Assay (KinEASE-TK); conditions: 10 uM ATP
Outline: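 Activity read-out is the HTRF ratio (665 nm over 620 nm emission, ×10,000; excitation 340 nm) after 1 h detection with 0.375 nM Eu3+-cryptate anti-TK antibody plus 0.062 uM SA-XL665. Preceding kinase step: human MER (528-end), biotinylated TK substrate, 1 h, room temperature.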

[1] = biological target: BCR fusion to kinase domain of MerTK (Ba/F3-MerTK) (Homo sapiens, UniProt Q12866); test: In Cell TAM Kinase Assay Using BaF3 Cellular System; type: cell-based, murine; conditions: Ba/F3 BCR-kinase fusion proliferation, 72 hours, Cell Titer Glo; kinase not given; read-out: IC50
Sequence of BCR fusion to kinase domain of MerTK (Ba/F3-MerTK) (Q12866 21-999 limits assumed, stated change not applied): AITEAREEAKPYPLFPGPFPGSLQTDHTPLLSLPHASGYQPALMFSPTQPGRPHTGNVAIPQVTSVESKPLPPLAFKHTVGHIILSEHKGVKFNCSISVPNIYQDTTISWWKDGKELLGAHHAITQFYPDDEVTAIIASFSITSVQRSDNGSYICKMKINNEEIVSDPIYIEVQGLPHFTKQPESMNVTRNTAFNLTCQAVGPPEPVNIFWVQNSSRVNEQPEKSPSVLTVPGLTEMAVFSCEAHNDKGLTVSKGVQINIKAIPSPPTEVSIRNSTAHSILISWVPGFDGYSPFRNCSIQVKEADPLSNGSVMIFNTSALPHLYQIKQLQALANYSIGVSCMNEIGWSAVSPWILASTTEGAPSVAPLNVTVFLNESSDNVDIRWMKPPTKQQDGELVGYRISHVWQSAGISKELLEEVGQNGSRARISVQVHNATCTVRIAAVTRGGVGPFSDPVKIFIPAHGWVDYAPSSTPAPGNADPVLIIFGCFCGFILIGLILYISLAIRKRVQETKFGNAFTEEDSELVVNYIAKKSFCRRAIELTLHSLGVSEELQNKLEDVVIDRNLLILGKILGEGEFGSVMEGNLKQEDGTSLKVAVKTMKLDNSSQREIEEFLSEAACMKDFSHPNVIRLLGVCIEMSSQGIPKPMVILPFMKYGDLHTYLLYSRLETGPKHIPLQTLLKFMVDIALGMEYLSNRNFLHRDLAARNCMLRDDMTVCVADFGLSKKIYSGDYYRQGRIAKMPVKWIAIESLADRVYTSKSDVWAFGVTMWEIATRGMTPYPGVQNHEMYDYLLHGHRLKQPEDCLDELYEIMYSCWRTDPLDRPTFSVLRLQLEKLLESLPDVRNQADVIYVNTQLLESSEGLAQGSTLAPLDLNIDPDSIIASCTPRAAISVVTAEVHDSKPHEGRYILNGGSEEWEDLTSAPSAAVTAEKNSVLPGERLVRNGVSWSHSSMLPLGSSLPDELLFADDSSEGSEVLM
From the text: Three Ba/F3 cell lines (a murine IL-3 dependent pro-B cell line) expressing BCR fusions to the kinase domains of either MerTK (Ba/F3-MerTK), Axl (Ba/F3-Axl), or Tyro3 (Ba/F3-Tyro3) were purchased from Advanced Cellular Dynamics. The IL-3 independence of all 3 cell lines was confirmed. After thawing, the 3 Ba/F3 cell lines were split and maintained in cell culture media, which consisted of RPMI-1640-HEPES (Thermo-Cat #22400-089) with 1× Glutamax (Thermo-Cat #35050-061) and 10% FBS (Sigma-Cat #F4135 (500 ml), at a cell density range of 0.05×10^6−1×10^6 cells/mL 4 days before used in the routine screen. Compound plates were prepared using Nunc™ white 384-well optical bottom plates (ThermoFisher, USA) with compound in 25 nL dimethyl sulfoxide in each well. For routine assays, each of the 3 Ba/F3 cell lines was seeded at 1,000 cells per well with 25 µL of cell culture media directly into 384-well compound plates and incubated for 72 hours. Cell proliferation was then measured by adding 25 μL of Cell Titer Glo 2.0 (Promega, USA). After incubating with Cell Titer Glo at room temperature for 30 mins, the luminescence intensity, which quantifies the cell viability, was measured using an Envision™ plate reader (PerkinElmer, USA). […] In the presence of IL-3, the proliferation of the Ba/F3-Tyro3 cells is no longer dependent on the Tyro3 kinase activity.

Sequence of human MER (528-end) (Q12866 528-999 limits assumed): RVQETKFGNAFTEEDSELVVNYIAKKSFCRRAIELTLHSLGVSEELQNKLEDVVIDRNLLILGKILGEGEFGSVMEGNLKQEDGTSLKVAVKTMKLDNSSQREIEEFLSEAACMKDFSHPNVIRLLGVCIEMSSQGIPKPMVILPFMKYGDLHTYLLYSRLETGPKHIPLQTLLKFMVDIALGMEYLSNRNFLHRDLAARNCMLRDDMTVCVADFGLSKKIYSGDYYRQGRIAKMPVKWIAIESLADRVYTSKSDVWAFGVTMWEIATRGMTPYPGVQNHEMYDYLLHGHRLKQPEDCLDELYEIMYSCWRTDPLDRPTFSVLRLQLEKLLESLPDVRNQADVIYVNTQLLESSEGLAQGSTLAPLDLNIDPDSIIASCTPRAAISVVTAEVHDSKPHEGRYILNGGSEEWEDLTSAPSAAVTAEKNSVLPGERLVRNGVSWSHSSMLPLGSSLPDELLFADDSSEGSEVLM

With `Cn1cc(-c2cnc(N)c(C(=O)N[C@@H]3CCN(C(=O)c4cc5ccccc5n4C)C3)c2)cn1` [Example 695, (R)-2-amino-N-(1-(1-methyl-1H-indole-2-carbonyl)pyrrolidin-3-yl)-5-(1-methyl-1H-pyrazol-4-yl)nicotinamide] the IC50 (human MER (528-end)) was > 1000 nM and the IC50 [1] was > 1000 nM.

With `Cn1cc(-c2cnc(N)c(C(=O)N[C@@H]3CCN(C(=O)c4cc5cc(F)ccc5[nH]4)C3)c2)cn1` [Example 696, (R)-2-amino-N-(1-(5-fluoro-1H-indole-2-carbonyl)pyrrolidin-3-yl)-5-(1-methyl-1H-pyrazol-4-yl)nicotinamide] the IC50 (human MER (528-end)) was > 1000 nM and the IC50 [1] was > 1000 nM.

In the case of `Cn1cc(-c2cnc(N)c(C(=O)N[C@@H]3CCN(C(=O)c4cc5ccccc5[nH]4)C3)c2)cn1` [Example 697, (R)—N-(1-(1H-indole-2-carbonyl)pyrrolidin-3-yl)-2-amino-5-(1-methyl-1H-pyrazol-4-yl)nicotinamide], the IC50 (human MER (528-end)) is reported as > 1000 nM and the IC50 [1] is reported as > 1000 nM.

`Cc1[nH]c2cc(C(=O)N3CC[C@@H](NC(=O)c4cc(-c5cnn(C)c5)cnc4N)C3)ccc2c1C` [Example 698, (R)-2-amino-N-(1-(2,3-dimethyl-1H-indole-6-carbonyl)pyrrolidin-3-yl)-5-(1-methyl-1H-pyrazol-4-yl)nicotinamide] was tested, and the IC50 (human MER (528-end)) was 100 to 1000 nM and the IC50 [1] was > 1000 nM.

`Cn1cc(-c2cnc(N)c(C(=O)N[C@@H]3CCN(C(=O)c4ccc5cccnc5n4)C3)c2)cn1` [Example 699, (R)—N-(1-(1,8-naphthyridine-2-carbonyl)pyrrolidin-3-yl)-2-amino-5-(1-methyl-1H-pyrazol-4-yl)nicotinamide] was tested, and the IC50 (human MER (528-end)) was > 1000 nM and the IC50 [1] was > 1000 nM.

`Cn1cc(-c2cnc(N)c(C(=O)N[C@@H]3CCN(C(=O)c4ccc5cnccc5n4)C3)c2)cn1` [Example 700, (R)—N-(1-(1,6-naphthyridine-2-carbonyl)pyrrolidin-3-yl)-2-amino-5-(1-methyl-1H-pyrazol-4-yl)nicotinamide] was tested, and the IC50 (human MER (528-end)) was > 1000 nM and the IC50 [1] was > 1000 nM.

In the case of `CCn1c(C(=O)N2CC[C@@H](NC(=O)c3cc(-c4cnn(C)c4)cnc3N)C2)cc2ccccc21` [Example 701, (R)-2-amino-N-(1-(1-ethyl-1H-indole-2-carbonyl)pyrrolidin-3-yl)-5-(1-methyl-1H-pyrazol-4-yl)nicotinamide], the IC50 (human MER (528-end)) is reported as > 1000 nM and the IC50 [1] is reported as > 1000 nM.

In the case of `Cn1cc(-c2cnc(N)c(C(=O)N[C@@H]3CCN(C(=O)c4cc5ccccc5n4Cc4ccccc4)C3)c2)cn1` [Example 702, (R)-2-amino-N-(1-(1-benzyl-1H-indole-2-carbonyl)pyrrolidin-3-yl)-5-(1-methyl-1H-pyrazol-4-yl)nicotinamide], the IC50 (human MER (528-end)) is reported as > 1000 nM and the IC50 [1] is reported as > 1000 nM.

For `Cn1cc(-c2cnc(N)c(C(=O)N[C@@H]3CCN(C(=O)c4cc5c(C(F)(F)F)ccc(Cl)c5n4C)C3)c2)cn1` [Example 703, (R)-2-amino-N-(1-(7-chloro-1-methyl-4-(trifluoromethyl)-1H-indole-2-carbonyl)pyrrolidin-3-yl)-5-(1-methyl-1H-pyrazol-4-yl)nicotinamide], the IC50 (human MER (528-end)) was > 1000 nM and the IC50 [1] was > 1000 nM.

With `Cn1cc(-c2cnc(N)c(C(=O)N[C@@H]3CCN(C(=O)c4cc5c(C(F)(F)F)ccc(Cl)c5[nH]4)C3)c2)cn1` [Example 704, (R)-2-amino-N-(1-(7-chloro-4-(trifluoromethyl)-1H-indole-2-carbonyl)pyrrolidin-3-yl)-5-(1-methyl-1H-pyrazol-4-yl)nicotinamide] the IC50 (human MER (528-end)) was > 1000 nM and the IC50 [1] was > 1000 nM.

`Cn1cc(-c2cnc(N)c(C(=O)N[C@@H]3CCN(C(=O)c4ccc5cc(O)ccc5c4)C3)c2)cn1` [Example 706, (R)-2-amino-N-(1-(6-hydroxy-2-naphthoyl)pyrrolidin-3-yl)-5-(1-methyl-1H-pyrazol-4-yl)nicotinamide] was tested, and the IC50 (human MER (528-end)) was 100 to 1000 nM and the IC50 [1] was > 1000 nM.

In the case of `Cn1cc(-c2cnc(N)c(C(=O)N[C@@H]3CCN(C(=O)c4c[nH]c(=O)n(-c5ccc(F)cc5)c4=O)C3)c2)cn1` [Example 707, (R)-2-amino-N-(1-(3-(4-fluorophenyl)-2,4-dioxo-1,2,3,4-tetrahydropyrimidine-5-carbonyl)pyrrolidin-3-yl)-5-(1-methyl-1H-pyrazol-4-yl)nicotinamide], the IC50 (human MER (528-end)) is reported as > 1000 nM and the IC50 [1] is reported as > 1000 nM.

In the case of `Cn1cc(-c2cnc(N)c(C(=O)N[C@@H]3CCN(C(=O)c4cc5cc(Br)ccc5s4)C3)c2)cn1` [Example 708, (R)-2-amino-N-(1-(5-bromobenzo[b]thiophene-2-carbonyl)pyrrolidin-3-yl)-5-(1-methyl-1H-pyrazol-4-yl)nicotinamide], the IC50 (human MER (528-end)) is reported as 100 to 1000 nM and the IC50 [1] is reported as 500 to 1000 nM.

`Cn1cc(-c2cnc(N)c(C(=O)N[C@@H]3CCN(C(=O)c4ccc5c(ccn5CC5CCNCC5)c4)C3)c2)cn1` [Example 709, (R)-2-amino-5-(1-methyl-1H-pyrazol-4-yl)-N-(1-(1-(piperidin-4-ylmethyl)-1H-indole-5-carbonyl)pyrrolidin-3-yl)nicotinamide] was tested, and the IC50 (human MER (528-end)) was 100 to 1000 nM and the IC50 [1] was > 1000 nM.

In the case of `Cn1cc(-c2cnc(N)c(C(=O)N[C@@H]3CCN(C(=O)c4c[nH]c5ccccc45)C3)c2)cn1` [Example 710, (R)—N-(1-(1H-indole-3-carbonyl)pyrrolidin-3-yl)-2-amino-5-(1-methyl-1H-pyrazol-4-yl)nicotinamide], the IC50 (human MER (528-end)) is reported as > 1000 nM and the IC50 [1] is reported as > 1000 nM.

In the case of `Cn1cc(-c2cnc(N)c(C(=O)N[C@@H]3CCN(C(=O)c4ccc(-c5ccc(CN6CCOCC6)cc5)cc4)C3)c2)cn1` [Example 711, (R)-2-amino-5-(1-methyl-1H-pyrazol-4-yl)-N-(1-(4′-(morpholinomethyl)-[1,1′-biphenyl]-4-carbonyl)pyrrolidin-3-yl)nicotinamide], the IC50 (human MER (528-end)) is reported as > 1000 nM and the IC50 [1] is reported as > 1000 nM.

For `Cn1cc(-c2cnc(N)c(C(=O)N[C@@H]3CCN(C(=O)c4ccc(-c5cccc(-c6nnnn6C)c5)cc4)C3)c2)cn1` [Example 712, (R)-2-amino-5-(1-methyl-1H-pyrazol-4-yl)-N-(1-(3′-(1-methyl-1H-tetrazol-5-yl)-[1,1′-biphenyl]-4-carbonyl)pyrrolidin-3-yl)nicotinamide], the IC50 (human MER (528-end)) was 10 to 100 nM and the IC50 [1] was 500 to 1000 nM.

`Cn1cc(-c2cnc(N)c(C(=O)N[C@@H]3CCN(C(=O)c4ccc(-c5cccc(-c6nnn[nH]6)c5)cc4)C3)c2)cn1` [Example 713, (R)—N-(1-(3′-(1H-tetrazol-5-yl)-[1,1′-biphenyl]-4-carbonyl)pyrrolidin-3-yl)-2-amino-5-(1-methyl-1H-pyrazol-4-yl)nicotinamide] was tested, and the IC50 (human MER (528-end)) was 100 to 1000 nM and the IC50 [1] was > 1000 nM.

`Cc1nc(-c2cccc(-c3ccc(C(=O)N4CC[C@@H](NC(=O)c5cc(-c6cnn(C)c6)cnc5N)C4)cc3)c2)no1` [Example 714, (R)-2-amino-N-(1-(3′-(5-methyl-1,2,4-oxadiazol-3-yl)-[1,1′-biphenyl]-4-carbonyl)pyrrolidin-3-yl)-5-(1-methyl-1H-pyrazol-4-yl)nicotinamide] was tested, and the IC50 (human MER (528-end)) was 10 to 100 nM and the IC50 [1] was > 1000 nM.

`Cn1cc(-c2cnc(N)c(C(=O)N[C@@H]3CCN(C(=O)c4ccc(Oc5ccccc5Cl)cc4)C3)c2)cn1` [Example 718, (R)-2-amino-N-(1-(4-(2-chlorophenoxy)benzoyl)pyrrolidin-3-yl)-5-(1-methyl-1H-pyrazol-4-yl)nicotinamide] gave an IC50 (human MER (528-end)) of 10 to 100 nM and an IC50 [1] of 500 to 1000 nM.

In the case of `CN1CCC(N(Cc2ccccc2)c2ccc3cc(C(=O)N4CC[C@@H](NC(=O)c5cc(-c6cnn(C)c6)cnc5N)C4)ccc3c2)CC1` [Example 720, (R)-2-amino-N-(1-(6-(benzyl(1-methylpiperidin-4-yl)amino)-2-naphthoyl)pyrrolidin-3-yl)-5-(1-methyl-1H-pyrazol-4-yl)nicotinamide], the IC50 (human MER (528-end)) is reported as 100 to 1000 nM and the IC50 [1] is reported as > 1000 nM.

With `CCN(c1ccc2cc(C(=O)N3CC[C@@H](NC(=O)c4cc(-c5cnn(C)c5)cnc4N)C3)ccc2c1)C1CC(C)(C)N(C)C(C)(C)C1` [Example 721, (R)-2-amino-N-(1-(6-(ethyl(1,2,2,6,6-pentamethylpiperidin-4-yl)amino)-2-naphthoyl)pyrrolidin-3-yl)-5-(1-methyl-1H-pyrazol-4-yl)nicotinamide] the IC50 (human MER (528-end)) was 10 to 100 nM and the IC50 [1] was 100 to 500 nM.

`CN1C(C)(C)CC(Nc2ccc3cc(C(=O)N4CC[C@@H](NC(=O)c5cc(-c6cnn(C)c6)cnc5N)C4)ccc3c2)CC1(C)C` [Example 722, (R)-2-amino-5-(1-methyl-1H-pyrazol-4-yl)-N-(1-(6-((1,2,2,6,6-pentamethylpiperidin-4-yl)amino)-2-naphthoyl)pyrrolidin-3-yl)nicotinamide] was tested, and the IC50 (human MER (528-end)) was > 1000 nM and the IC50 [1] was > 1000 nM.

For `Cn1cc(-c2cnc(N)c(C(=O)NC[C@@H]3CCCN3C(=O)c3ccc(-c4ccccc4)cc3)c2)cn1` [Example 734, (S)—N-((1-([1,1′-biphenyl]-4-carbonyl)pyrrolidin-2-yl)methyl)-2-amino-5-(1-methyl-1H-pyrazol-4-yl)nicotinamide], the IC50 (human MER (528-end)) was > 1000 nM and the IC50 [1] was > 1000 nM.
